Where two headings read alike, the source gives them in different places.
Legend:
[1] = molecular target: T1, guinea pig liver-originated transglutaminase 2 (Cavia cutleri, UniProt P08587); test: In vitro transglutaminase 2 assay (1), [1,4-14C] putrescine incorporation into succinylated casein; assay type: biochemical; conditions: for mean value (scintillation counts) / fold values relative to the mean value of the control: 2 μM; for mean value (scintillation counts): negative control 129.0, control 4147.5, FIG. 1; for fold values relative to the mean value of the control: standard deviations 0.02 and 0.01; for TGase2 enzyme activity inhibitory effect compared with streptonigrin (KN383, positive control): same dose (2 μM)
T1 construct: 1 mU of guinea pig liver-originated transglutaminase 2 (Sigma, St. Louis, MO, USA); purchased Sigma; host or cells: guinea pig liver
T1 sequence (P08587 1-690): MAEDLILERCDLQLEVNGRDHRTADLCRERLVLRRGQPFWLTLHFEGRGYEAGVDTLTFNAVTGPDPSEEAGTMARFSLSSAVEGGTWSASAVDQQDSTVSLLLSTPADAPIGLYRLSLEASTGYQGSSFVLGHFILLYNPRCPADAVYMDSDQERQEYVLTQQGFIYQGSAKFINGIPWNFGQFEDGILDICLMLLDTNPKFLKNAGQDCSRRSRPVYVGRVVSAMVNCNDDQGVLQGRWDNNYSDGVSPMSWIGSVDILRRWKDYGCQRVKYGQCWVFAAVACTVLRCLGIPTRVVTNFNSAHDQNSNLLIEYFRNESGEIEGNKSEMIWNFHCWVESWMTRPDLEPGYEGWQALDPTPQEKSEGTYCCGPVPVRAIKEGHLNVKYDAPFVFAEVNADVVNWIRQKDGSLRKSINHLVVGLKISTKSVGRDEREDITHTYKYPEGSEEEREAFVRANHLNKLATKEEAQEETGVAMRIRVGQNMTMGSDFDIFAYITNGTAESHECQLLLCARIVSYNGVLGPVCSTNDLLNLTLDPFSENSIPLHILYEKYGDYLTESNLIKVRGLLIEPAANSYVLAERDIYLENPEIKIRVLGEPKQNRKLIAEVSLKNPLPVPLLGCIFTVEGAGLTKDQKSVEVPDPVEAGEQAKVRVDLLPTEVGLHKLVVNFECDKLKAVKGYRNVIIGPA
Description: Incorporation of [1,4-14C] putrescine into succinylated casein was measured to determine the inhibitory effect of each compound on the activity of transglutaminase 2 (TGase 2). 1 mU of guinea pig liver-originated transglutaminase 2 (Sigma, St. Louis, MO, USA) was preincubated with various concentrations of GK13 or GK921 in a 0.1 mL reaction buffer with or without 10 mM CaCl2 for 10 minutes, and 0.4 mL of a substrate solution containing 2% (w/v) succinylated casein and 100 nCi of [1,4-14C] putrescine. After incubation at 37° C. for 1 hour, 4 mL of cold (4° C.) 7.5% (w/v) trichloroacetic acid (TCA) was added to terminate the reaction. The TCA-insoluble precipitate was recovered with a GF/A-grade glass filter (Millipore, Billerica, MA, USA), washed with cold 5% (w/v) TCA, dried, and assessed with a scintillation counter (Beckman Coulter, Brea, CA, USA) to evaluate radiolabel binding. Transglutaminase 2 which was pre-incubated only with a buffer was used as a positive control. The scintillation counts were compared between the example and the positive control, and IC50 values were determined through the logistic linear regression method. The presented data were the mean values of three independent experiments. In this experimental example and the following experimental example, Streptonigrin (described as KN383 in each figure of the drawing), which is an existing transglutaminase 2 inhibitor, was used as a positive control.

[2] = system: ACHN cancer cell population; test: Sulforhodamine B (SRB) assay; assay type: cell-based, Human; conditions: for GI50 / SRB measurement (percentage decrease in the control value of SRB): 48 hours; for GI50: read-out: GI50 (50% growth inhibition); for SRB measurement (percentage decrease in the control value of SRB): concentration of 10^−5 M; for decrease in cell counts: concentrations 10^−6 M or lower
Description: Cells (10,000 cells/well, 100 μL) were incubated in a 96-well microtiter plate. After 24 hours of the incubation, drug (100 μL) was added to each of the wells, and the culture was further incubated at 37° C. for 48 hours. The cells were then fixed in TCA (50 μL per well). The plates were incubated at 4° C. for a minimum of 1 hour or a maximum of 3 hours. The liquid was removed from the plates, and then the plate was washed five times with water and then dried at room temperature (RT) for about 12-24 hours. The fixed cells were stained with 100 μL SRB for 5 minutes at room temperature. After the staining, the plate was washed three times with 1% (w/v) glacial acetic acid and dried at room temperature for about 12-24 hours. Next, the SRB was then dissolved in 10 mM Trizma base, and the absorbance was measured at 515 nm. The effect of the drug was expressed as GI50 (50% growth inhibition).
Specifically, each of the LDD3732, LDD3922, and LDD3959 in concentrations of 10^−9, 10^−8, 10^−7, 10^−6, and 10^−5 M were tested, and the percentage decrease in the control value of SRB was measured using an ACHN cancer cell population.

[3] = system: p53; test: P53 rescue test using western blotting; assay type: cell-based; conditions: low to high concentration, cancer cell lines
Description: Whole cell lysates were prepared using a radioimmunoprecipitation assay (RIPA) buffer (150 mM sodium chloride, 1.0% (w/v) IGEPAL® CA-630 (NP-40), 0.5% (w/v) sodium deoxycholate, 0.1% (w/v) sodium dodecyl sulfate (SDS), a protease inhibitor cocktail, and 50 mM Tris-HCl (pH 8.0) containing a phosphatase inhibitor cocktail. Protein assays were performed through Bradford protein assay (Thermo Scientific, Waltham, MA, USA) to normalize protein expression. The proteins were resolved by SDS-PAGE and transferred to polyvinylidene difluoride (PVDF) membranes (Merck Millipore, Burlington, MA, USA). The membranes were blocked with 5% (w/v) BSA for 1 hour at room temperature and incubated overnight at 4° C. with labeled antibodies. Membranes were washed in TBS-T for 1 hour at room temperature and incubated together with a horseradish peroxidase (HRP)-bound secondary antibody for 1 hour at room temperature. Finally, the membranes were washed in TBS-T for 1 hour at room temperature and developed with enhanced chemiluminescence.

[4] = system: MCF7 cells; test: Cell viability in breast cancer cell lines according to concentration; assay type: cell-based; conditions: MCF7, no expression of transglutaminase 2, 72 hours
Description: First breast cancer cells (MDA-MB-453, HCC-1806, HCC-1937: 10,000 cells/well, 100 μl) and second breast cancer cells (MDA-MB-231, MCF-7: 10,000 cells/well, 100 μl) were cultured in 96-well microplates.
After 24 hours, LDD3959 […] of various concentrations were added to each well, using a serum-free cell culture medium, and a reaction was allowed to proceed for 2 hours at 37° C. in the presence of 5% CO2. The culture medium was replaced with a culture medium containing 10% FSB, and a reaction was performed for 72 hours.
The existing culture medium was removed, and a new culture medium containing a water soluble tetrazolium salt was added. After that, the plate underwent a reaction at 37° C. in the presence of 5% CO2 for a duration in the range of 1 hour to 3 hours, and then absorbance was measured at 450 nm.

Structure (SMILES) | mean value (scintillation counts) [1] | fold values relative to the mean value of the control [1] | TGase2 enzyme activity inhibitory effect compared with streptonigrin (KN383, positive control) [1] | GI50 [2] [µM] | SRB measurement (percentage decrease in the control value of SRB) [2] | decrease in cell counts [2] | p53 rescue effect (Western blot band of p53) [3] | GI50 ([2]; Homo sapiens) [µM] | effective concentration for apoptosis [4]
O=C1C(Cl)=C(Cl)C(=O)c2[nH]c(-c3ccccc3)nc21 [LDD3732, 5,6-dichloro-2-phenyl-1H-benzo[d]imidazole-4.7-dione] | 477.5 | 0.12 | two-fold or greater stronger TGase2 enzyme activity inhibitory effects than the control | 2.2 | −41.43 | no significant decrease in cell counts | dose-dependent p53 rescue effects |  | 
O=C1C(Cl)=C(Cl)C(=O)c2[nH]c(-c3ccc(Br)cc3)nc21 [LDD3922, 2-(4-bromophenyl)-5,6-dichloro-1H-benzo[d]imidazole-4,7-dione] | 352.5 | 0.08 | two-fold or greater stronger TGase2 enzyme activity inhibitory effects than the control |  | 52.25 | no significant decrease in cell counts | dose-dependent p53 rescue effects | 5 | 
COC1=C(N)C(=O)c2nc(-c3nc(C(=O)O)c(C)c(-c4ccc(OC)c(OC)c4O)c3N)ccc2C1=O [streptonigrin, Streptonigrin, reference compound] | 1275.5 |  |  |  |  |  |  |  | low
